Results as given in patent publication US9139542B2, “Crystalline form of a substituted thiazolylacetic acid triethylamine salt” (THERAVANCE BIOPHARMA ANTIBIOTICS IP, LLC, priority 2013, dated 2015).

Legend:
[1] = Dynamic moisture sorption (DMS) assessment; format: physicochemical
Description: A dynamic moisture sorption (DMS) assessment (also known as a moisture sorption-desorption profile) was performed using a VTI atmospheric microbalance, SGA-100 system (VTI Corp., Hialeah, Fla. 33016). A sample of crystalline (2Z)-2-(2-amino-5-chlorothiazol-4-yl)-2-(3-N-tert-butoxycarbonylaminopropoxyimino)acetic acid triethylamine salt (about 10 mg) was used and the humidity was set at the ambient value at the start of the analysis. A typical DMS analysis consisted of three scans: ambient to 5% relative humidity (RH), 5% RH to 90% RH, 90% RH to 5% RH at a scan rate of 5% RH/step. The mass was measured every two minutes and the RH was changed to the next value (+/−5% RH) when the mass of the sample was stable to within 0.01% for 5 consecutive points.

[2] = Thermogravimetric analysis (TGA); format: physicochemical
Description: Thermogravimetric analysis (TGA) was performed using a TA Instruments Model Q-500 module equipped with high resolution capability. Data were collected and analyzed using TA Instruments Thermal Solutions software. A sample of crystalline (2Z)-2-(2-amino-5-chlorothiazol-4-yl)-2-(3-N-tert -butoxycarbonylaminopropoxyimino)acetic acid triethylamine salt (about 10 mg) was placed onto a platinum pan and scanned with a high resolution-heating rate from ambient temperature to 300° C. The balance and furnace chambers were purged with nitrogen flows during use.

CC(C)(C)OC(=O)NCCCO/N=C(\C(=O)O)c1nc(N)sc1Cl.CCN(CC)CC [crystalline form, (2Z)-2-(2-amino-5-chlorothiazol-4-yl)-2-(3-N-tert-butoxycarbonylaminopropoxyimino)acetic acid triethylamine salt]
hygroscopicity (reversible moisture sorption/desorption profile) ([1]; 5% RH to 90% RH to 5% RH): acceptable hygroscopicity | weight gain (moisture sorption) ([1]; humidity range of 5% RH to 60% RH): insignificant weight gain | weight gain (moisture sorption) ([1]; humidity range of 60% RH to 90% RH): about 5.56% | moisture loss on initial drying (DMS) ([1]; initial drying, ambient to 5% RH): 0.56 % by weight | weight loss (TGA) ([2]; above 120° C., likely post-melting evaporation of triethylamine and decomposition): about 50% | weight loss (TGA) ([2]; temperature range of from 20° C. to 120° C.): less than 0.25%
